Assay results from patent US11378572B2, “Therapeutic agent for immune cell migration-caused disease and method for screening same” (ZYMEDI CO., LTD., priority 2017, dated 2022).

What was measured:
ear skin wound model = assay: Ear skin wound model (acute inflammatory response); type: in vivo, CX3CR1-GFP mouse; settings: 100 mg/kg oral once daily, 4 days
Description: To investigate the effect of the inhibitor of KRS translocation to the plasma membranes during monocyte infiltration in acute inflammatory responses, an ear skin wound model using CX3CR1-GFP mouse (Stock no. #005582, Jackson Laboratory, Bar Harbor, USA) was prepared. Monocytes, macrophages and Langerhans cells appear green in CX3R1-GFP mice. Mice were administered orally with vehicle or BC-KI-00053 (100 mg/kg, dissolved in vehicle, once daily) for a total of 4 days from 2 days prior to imaging (D−2, D−1, D−0, D+1). For a vehicle, corn oil:polyethylene glycol 400:Tween 80:methyl cellulose (1%)=20:30:1:49 was used. A 31G syringe was used to puncture the skin of the ear (time D−0) to induce acute inflammatory responses. Blood vessels were labeled using anti-CD31 antibody bound to Alexa Flour 555 (identifiable as red). Confocal microscopy was used as an imaging equipment.

[1] = test system: FHH rats with superimposed hypertension; assay: FHH rat with superimposed hypertension (uninephrectomy, DOCA, 1% NaCl); type: in vivo
Description: Experiments were performed using male FHH rats of 9-12 weeks of age. These animals were provided by the University of Mississippi Medical Center and approved by the American Association for Accreditation of Laboratory Animal Care (AAALAC). All protocols were approved by the Institutional Animal Care and Use Committee of the University of Mississippi Medical Center. Rats were fed ad libitum, and provided with a purified AIN-76 rodent feed containing 0.4% NaCl (Dyets, Bethlehem, Pa.) after weaning. Fawn-hooded hypertensive (FHH) rat is a genetic model of spontaneous hypertension associated with glomerular hyperfiltration and proteinuria. In order to promote glomerular damage in this rat, DOCA strips were implanted after single (one) kidney extraction.
Specifically, FHH rats were anesthetized with isoflurane and telemetry transmitters (model TA11PAC40, Data Sciences International, St. Paul, Minn.) were implanted as described in ‘Williams, J. M. et al. […] Regul Integr Comp Physiol (2012)’. Briefly, surgery was performed under 2% to 3% isoflurane-O2, and the catheter of the device was inserted into the left femoral artery and guided upstream to the aorta. Body part of the telemetry unit was placed in the lateral cavity of the left leg and sutured with muscle tissue. Skin was then closed. To prevent infection, animals were given Baytril (10 mg/kg) and Rimadyl (5 mg/kg), a long-acting analgesic to control surgical pain. After surgery, rats were housed in individual cages in a quiet air-conditioned room environment with a 12:12 hour light-dark cycle and it took a week to fully recover from surgery. Thereafter, the basic mean arterial blood pressure (MAP) and proteinuria were measured for 4 hours (10 am to […]) before the rats were housed in the metabolic cage. Proteinuria was measured using the Bradford method and BSA (Bio-Rad Laboratories, Hercules, Calif.) as a standard.
One week after the transmitter insertion, rats were uninephrectomized as described in Wang, X. et al. Am J Physiol Renal Physiol (2016). Briefly, rats were anesthetized with 2-3% isoflurane-O2 and the right flank was dissected in aseptic condition. The right kidney was gently lifted and threaded tightly around the renal vessels and ureters. The right kidney was extracted by cutting the distal ends of the renal vessels and ureters. The incision was closed with a continuous subcutaneous stitch, after which the skin was further closed. After the rat's right kidney was removed, DOCA pellets (200 mg, Innovative Research of America) was subcutaneously implanted in the neck.
After single kidney extraction and DOCA transplant surgery, rats had recovery time for 3 days. Rats were provided with water containing 1% NaCl in place of distilled water, and randomly divided into two groups: Group 1 (n=15) was administered with BC-KI-00053 (25 mg/kg daily) by gastrointestinal gavage; Group 2 (n=15) was administered with the same volume (2.5 ml/kg daily) of vehicle (corn oil, polyethylene glycol 400, Tween 80 and methylcellulose) by gastrointestinal gavage. Blood pressure and proteinuria were measured weekly for 3 weeks in the experimental group. At the end of the experiment, rats were anesthetized with isoflurane and blood samples were taken to measure creatinine levels. Rats were then flushed with 50 ml of 0.9% NaCl through aorta and perfused with 20 ml of 4% paraformaldehyde. Kidneys and hearts were collected for histological evaluation.
Paraffin sections prepared with a thickness of […] were stained with Masson's trichrome to measure the degree of glomerular damage and renal interstitial fibrosis. Images were obtained using a Nikon Eclipse 55i microscope and NIS-Elements D 3.0 software equipped with Nikon DS-Fil color camera (Nikon, Melville, N.Y.). The degree of glomerular damage was assessed by the blinded experimenter, rating from 0 to 4+ for 30-40 […]. […]

[2] = 25 mg/kg daily 3 weeks, Masson's trichrome
[3] = 25 mg/kg daily, after two weeks of treatment
[4] = basal, before treatment, mean±SEM

COc1ccc(CCN(Cc2ccc(C(=O)O)cc2)c2nc3cccc(F)c3s2)cc1 [BC-KI-00053, 4-({(7-fluorobenzo[d]thiazol-2-yl)[2-(4-methoxyphenyl)ethyl]amino}methyl)benzoic acid]
infiltration of monocytes and macrophages around skin wound (ear skin wound model): significantly reduced | renal tissue infiltration of monocytes/macrophages (CD68 IHC) ([1]; 25 mg/kg daily 3 weeks): significantly reduced | cortical fibrosis [1, 2]: 5.79±0.48% | renal medulla fibrosis [1, 2]: 7.40±0.56% | cardiac fibrosis ([1]; 25 mg/kg daily 3 weeks, Sirius red, right ventricular insertion point): 9.14±2.18% | mean glomerular injury score ([1]; 25 mg/kg daily 3 weeks, score 0 to 4+): 1.49±0.05 | body weight reduction during the study period ([1]; 25 mg/kg daily gavage, 3 weeks): approximately 10% | MAP ([1]; 25 mg/kg daily, after one week of treatment): 174.4±3.83 mmHg | MAP [1, 3]: 168.8±3.74 mmHg | proteinuria [1, 3]: 285.5 ± 47.48 mg/day | plasma creatinine concentration ([1]; 25 mg/kg daily, end of experiment): 0.48 ± 0.02 mg/dL | proteinuria ([1]; 25 mg/kg daily, study completed (3 weeks)): 433.1 ± 60.59 mg/day | MAP ([1]; 25 mg/kg daily, three weeks): 176.9±5.83 mmHg | MAP [1, 4]: 120.1±0.62 mmHg | basal body weight [1, 4]: 304.7 ± 5.39 g | proteinuria ([1]; baseline, before treatment): 51.0 ± 4.9 mg/day
